The record followed here is the Kinase Knowledgebase extract (Sharma et al. 2016).

SMILES strings stand for the structures.

Usually IC50 stands for the midpoint of a concentration-inhibition curve.

Assay [1] addresses MAPK14 (human) (UniProt Q16539). The assay is described as follows: Inhibition of p38 Kinase Activity.
For assay [2] the target is unchanged. The assay is described as follows: Inhibition of IL-6 Production in Whole Blood Cells.
For assay [3] the target is unchanged. The assay is described as follows: Inhibition of TNF-alpha Production in LPS Stimulated PBMC.
The target is the same in assay [4]. The assay is described as follows: Inhibition of TNF-alpha Production in LPS Stimulated Whole Blood Cells.
The target is the same in assay [5]. The assay is described as follows: Inhibition of IL-1 Production in LPS Whole Blood Cells.
For assay [6] the target is unchanged. The assay is described as follows: Inhibition of IL-1 Production in LPS Stimulated PBMC.

Chain of MAPK14 (human) (Q16539 whole entry, looked up): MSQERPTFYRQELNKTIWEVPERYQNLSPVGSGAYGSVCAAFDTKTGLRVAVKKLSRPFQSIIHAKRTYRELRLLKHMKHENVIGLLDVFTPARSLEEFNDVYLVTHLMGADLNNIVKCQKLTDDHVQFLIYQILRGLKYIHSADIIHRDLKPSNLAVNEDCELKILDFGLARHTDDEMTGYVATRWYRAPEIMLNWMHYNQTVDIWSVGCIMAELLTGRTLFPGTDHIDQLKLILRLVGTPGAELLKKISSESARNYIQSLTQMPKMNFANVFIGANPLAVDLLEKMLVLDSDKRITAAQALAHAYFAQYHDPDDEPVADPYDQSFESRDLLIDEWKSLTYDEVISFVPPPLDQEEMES

As to `Cc1ccccc1-c1nc(N(C(N)=O)c2c(Cl)cccc2Cl)ccc1CO`, the IC50 worked out at 56 nM on MAPK14 (human) [1]; 250 nM against MAPK14 (human) [2]; 140 nM against MAPK14 (human) [3]; 64 nM against MAPK14 (human) [4]; 420 nM against MAPK14 (human) [5]; 21 nM against MAPK14 (human) [6].
`Cc1cc(F)ccc1-c1nc(N(C(N)=O)c2c(Cl)cccc2Cl)ccc1CO`: the IC50 amounted to 2 nM against MAPK14 (human) [1]; 180 nM on MAPK14 (human) [2]; 50 nM on MAPK14 (human) [3]; 55 nM against MAPK14 (human) [4]; 118 nM against MAPK14 (human) [5]; 20 nM against MAPK14 (human) [6].
With `Cc1cc(F)ccc1-c1nc(N(C(N)=O)c2c(F)cccc2F)ccc1CO`, the IC50 on MAPK14 (human) [1] turned out to be 27 nM; against MAPK14 (human) [2] it was 75 nM; against MAPK14 (human) [3], 10 nM; at MAPK14 (human) [4] it was 90 nM; against MAPK14 (human) [5], 57 nM; on MAPK14 (human) [6], 27 nM.
